Results published in patent US20250388604A1, “Compounds and Their Use as PDE4 Activators” (Mironid Limited, priority 2022, published 2025).

Each compound was assayed on m-IMCD3 cells (assay: Inhibition of PGE2-stimulated in vitro cyst formation in m-IMCD3 cells). Conditions: Mus musculus, mIMCD3, 144 h, 3 μM; mean cyst area, 100% for (DMSO + PGE2) and 0% for DMSO control; 6 days of culture; read-out: % Cyst area after incubation with 3 μM test compound.
Assay type: cell-based, mouse
How it was run: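 Mean cyst area after 6 days, expressed relative to DMSO+PGE2 (100%) and DMSO alone (0%), from z-stack images. Mouse m-IMCD3 spheroids grew in collagen I/Matrigel gels and received PGE2 (100 nM final) with test compound (0.1% DMSO) starting 18–24 h post-plating, media refreshed at day 2 or 3.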
With `COc1ccccc1C(=O)N1CCc2nc(N3C4CCC3CNC4)sc2C1` [Example 197, (2-(3,8-diazabicyclo[3.2.1]octan-8-yl)-6,7-dihydrothiazolo[5,4-c]pyridin-5(4H)-yl)(2-methoxyphenyl)methanone] the activity at 3 µM was 4%.
Compound `O=C(c1ccc(F)cc1)N1CCc2nc(N3C4CCC3CNC4)sc2C1` [Example 198, (2-(3,8-diazabicyclo[3.2.1]octan-8-yl)-6,7-dihydrothiazolo[5,4-c]pyridin-5(4H)-yl)(4-fluorophenyl)methanone] has an activity at 3 µM of -5%.
In the case of `O=C(c1cccc(C(F)F)c1)N1CCc2nc(N3C4CCC3CNC4)sc2C1` [Example 199, (2-(3,8-diazabicyclo[3.2.1]octan-8-yl)-6,7-dihydrothiazolo[5,4-c]pyridin-5(4H)-yl)(3-(difluoromethyl)phenyl)methanone], the activity at 3 µM is reported as 3%.
`O=C(c1ccc(F)nc1)N1CCc2nc(N3C4CCC3CNC4)sc2C1` [Example 200, (2-(3,8-diazabicyclo[3.2.1]octan-8-yl)-6,7-dihydrothiazolo[5,4-c]pyridin-5(4H)-yl)(6-fluoropyridin-3-yl)methanone] was tested, and the activity at 3 µM was 4%.
In the case of `O=C(c1ccccn1)N1CCc2nc(N3C4CCC3CNC4)sc2C1` [Example 201, (2-(3,8-diazabicyclo[3.2.1]octan-8-yl)-6,7-dihydrothiazolo[5,4-c]pyridin-5(4H)-yl)(pyridin-2-yl)methanone], the activity at 3 µM is reported as 17%.
For `O=C(c1ccc(F)cn1)N1CCc2nc(N3C4CCC3CNC4)sc2C1` [Example 202, (2-(3,8-diazabicyclo[3.2.1]octan-8-yl)-6,7-dihydrothiazolo[5,4-c]pyridin-5(4H)-yl)(5-fluoropyridin-2-yl)methanone], the activity at 3 µM was -4%.
`O=C(c1ccccc1OC(F)F)N1CCc2nc(N3C4CCC3CNC4)sc2C1` [Example 203, (2-(3,8-diazabicyclo[3.2.1]octan-8-yl)-6,7-dihydrothiazolo[5,4-c]pyridin-5(4H)-yl)(2-(difluoromethoxy)phenyl)methanone] was tested, and the activity at 3 µM was -1%.
With `O=C(c1ccc(OC(F)F)cc1)N1CCc2nc(N3C4CCC3CNC4)sc2C1` [Example 204, (2-(3,8-diazabicyclo[3.2.1]octan-8-yl)-6,7-dihydrothiazolo[5,4-c]pyridin-5(4H)-yl)(4-(difluoromethoxy)phenyl)methanone] the activity at 3 µM was 4%.
In the case of `O=C(c1cccc(OC(F)(F)F)c1)N1CCc2nc(N3C4CCC3CNC4)sc2C1` [Example 205, (2-(3,8-diazabicyclo[3.2.1]octan-8-yl)-6,7-dihydrothiazolo[5,4-c]pyridin-5(4H)-yl)(3-(trifluoromethoxy)phenyl)methanone], the activity at 3 µM is reported as 0%.
`O=C(c1cccc(OC(F)F)c1)N1CCc2nc(N3C4CCC3CNC4)sc2C1` [Example 206, (2-(3,8-diazabicyclo[3.2.1]octan-8-yl)-6,7-dihydrothiazolo[5,4-c]pyridin-5(4H)-yl)(3-(difluoromethoxy)phenyl)methanone] was tested, and the activity at 3 µM was 6%.
With `O=C(c1ccccc1OC(F)(F)F)N1CCc2nc(N3C4CCC3CNC4)sc2C1` [Example 207, (2-(3,8-diazabicyclo[3.2.1]octan-8-yl)-6,7-dihydrothiazolo[5,4-c]pyridin-5(4H)-yl)(2-(trifluoromethoxy)phenyl)methanone] the activity at 3 µM was 0%.
For `O=C(c1ccc(OC(F)(F)F)cc1)N1CCc2nc(N3C4CCC3CNC4)sc2C1` [Example 208, (2-(3,8-diazabicyclo[3.2.1]octan-8-yl)-6,7-dihydrothiazolo[5,4-c]pyridin-5(4H)-yl)(4-(trifluoromethoxy)phenyl)methanone], the activity at 3 µM was 8%.
`O=C(c1ccccc1F)N1CCc2nc(N3C4CCC3CNC4)sc2C1` [Example 209, (2-(3,8-diazabicyclo[3.2.1]octan-8-yl)-6,7-dihydrothiazolo[5,4-c]pyridin-5(4H)-yl)(2-fluorophenyl)methanone] showed an activity at 3 µM of -5%.
With `O=C(c1ccccc1Cl)N1CCc2nc(N3C4CCC3CNC4)sc2C1` [Example 210, (2-(3,8-diazabicyclo[3.2.1]octan-8-yl)-6,7-dihydrothiazolo[5,4-c]pyridin-5(4H)-yl)(2-chlorophenyl)methanone] the activity at 3 µM was 11%.
Work on `CC(C)Oc1ccccc1C(=O)N1CCc2nc(N3C4CCC3CNC4)sc2C1` [Example 211, (2-(3,8-diazabicyclo[3.2.1]octan-8-yl)-6,7-dihydrothiazolo[5,4-c]pyridin-5(4H)-yl)(2-isopropoxyphenyl)methanone] yielded an activity at 3 µM of 40%.
With `O=C(c1ccc(F)cc1F)N1CCc2nc(N3C4CCC3CNC4)sc2C1` [Example 212, (2-(3,8-diazabicyclo[3.2.1]octan-8-yl)-6,7-dihydrothiazolo[5,4-c]pyridin-5(4H)-yl)(2,4-difluorophenyl)methanone] the activity at 3 µM was 0%.
Work on `N#Cc1ccccc1C(=O)N1CCc2nc(N3C4CCC3CNC4)sc2C1` [Example 213, 2-(2-(3,8-diazabicyclo[3.2.1]octan-8-yl)-4,5,6,7-tetrahydrothiazolo[5,4-c]pyridine-5-carbonyl)benzonitrile] yielded an activity at 3 µM of 17%.
For `COCc1ccccc1C(=O)N1CCc2nc(N3C4CCC3CNC4)sc2C1` [Example 214, (2-(3,8-diazabicyclo[3.2.1]octan-8-yl)-6,7-dihydrothiazolo[5,4-c]pyridin-5(4H)-yl)(2-(methoxymethyl)phenyl)methanone], the activity at 3 µM was 54%.
For `CC(C)c1ccccc1C(=O)N1CCc2nc(N3C4CCC3CNC4)sc2C1` [Example 215, (2-(3,8-diazabicyclo[3.2.1]octan-8-yl)-6,7-dihydrothiazolo[5,4-c]pyridin-5(4H)-yl)(2-isopropylphenyl)methanone], the activity at 3 µM was 7%.
Compound `Cc1cc(F)ccc1C(=O)N1CCc2nc(N3C4CCC3CNC4)sc2C1` [Example 216, (2-(3,8-diazabicyclo[3.2.1]octan-8-yl)-6,7-dihydrothiazolo[5,4-c]pyridin-5(4H)-yl)(4-fluoro-2-methylphenyl)methanone] has an activity at 3 µM of -3%.
Compound `O=C(c1cccc2c1OCCC2)N1CCc2nc(N3C4CCC3CNC4)sc2C1` [Example 217, (2-(3,8-diazabicyclo[3.2.1]octan-8-yl)-6,7-dihydrothiazolo[5,4-c]pyridin-5(4H)-yl)(chroman-8-yl)methanone] has an activity at 3 µM of -3%.
With `O=C(c1ccccc1C(F)F)N1CCc2nc(N3C4CCC3CNC4)sc2C1` [Example 218, (2-(3,8-diazabicyclo[3.2.1]octan-8-yl)-6,7-dihydrothiazolo[5,4-c]pyridin-5(4H)-yl)(2-(difluoromethyl)phenyl)methanone] the activity at 3 µM was 11%.
`COc1cc(C)ccc1C(=O)N1CCc2nc(N3C4CCC3CNC4)sc2C1` [Example 219, (2-(3,8-diazabicyclo[3.2.1]octan-8-yl)-6,7-dihydrothiazolo[5,4-c]pyridin-5(4H)-yl)(2-methoxy-4-methylphenyl)methanone] was tested, and the activity at 3 µM was 11%.
`O=C(c1ccccc1C1CC1)N1CCc2nc(N3C4CCC3CNC4)sc2C1` [Example 220, (2-(3,8-diazabicyclo[3.2.1]octan-8-yl)-6,7-dihydrothiazolo[5,4-c]pyridin-5(4H)-yl)(2-cyclopropylphenyl)methanone] gave an activity at 3 µM of -5%.
`O=C(c1ccc(Cl)nc1)N1CCc2nc(N3C4CCC3CNC4)sc2C1` [Example 221, (2-(3,8-diazabicyclo[3.2.1]octan-8-yl)-6,7-dihydrothiazolo[5,4-c]pyridin-5(4H)-yl)(6-chloropyridin-3-yl)methanone] showed an activity at 3 µM of 0%.
`COc1cc(F)ccc1C(=O)N1CCc2nc(N3C4CCC3CNC4)sc2C1` [Example 222, (2-(3,8-diazabicyclo[3.2.1]octan-8-yl)-6,7-dihydrothiazolo[5,4-c]pyridin-5(4H)-yl)(4-fluoro-2-methoxyphenyl)methanone] gave an activity at 3 µM of 4%.
`CC(F)(F)c1ccccc1C(=O)N1CCc2nc(N3C4CCC3CNC4)sc2C1` [Example 223, (2-(3,8-diazabicyclo[3.2.1]octan-8-yl)-6,7-dihydrothiazolo[5,4-c]pyridin-5(4H)-yl)(2-(1,1-difluoroethyl)phenyl)methanone] showed an activity at 3 µM of 14%.
Work on `O=C(c1cccnc1Cl)N1CCc2nc(N3C4CCC3CNC4)sc2C1` [Example 224, (2-(3,8-diazabicyclo[3.2.1]octan-8-yl)-6,7-dihydrothiazolo[5,4-c]pyridin-5(4H)-yl)(2-chloropyridin-3-yl)methanone] yielded an activity at 3 µM of 22%.
In the case of `Cc1ccc(C(=O)N2CCc3nc(N4C5CCC4CNC5)sc3C2)c(C)c1` [Example 225, (2-(3,8-diazabicyclo[3.2.1]octan-8-yl)-6,7-dihydrothiazolo[5,4-c]pyridin-5(4H)-yl)(2,4-dimethylphenyl)methanone], the activity at 3 µM is reported as -1%.
Work on `O=C(c1ccc(C2CC2)cc1)N1CCc2nc(N3C4CCC3CNC4)sc2C1` [Example 228, (2-(3,8-diazabicyclo[3.2.1]octan-8-yl)-6,7-dihydrothiazolo[5,4-c]pyridin-5(4H)-yl)(4-cyclopropylphenyl)methanone] yielded an activity at 3 µM of -6%.
`O=C(c1ccc(C(F)F)cc1)N1CCc2nc(N3C4CCC3CNC4)sc2C1` [Example 229, (2-(3,8-diazabicyclo[3.2.1]octan-8-yl)-6,7-dihydrothiazolo[5,4-c]pyridin-5(4H)-yl)(4-(difluoromethyl)phenyl)methanone] gave an activity at 3 µM of -1%.
`O=C(c1cccc2c1OCC2)N1CCc2nc(N3C4CCC3CNC4)sc2C1` [Example 230, (2-(3,8-diazabicyclo[3.2.1]octan-8-yl)-6,7-dihydrothiazolo[5,4-c]pyridin-5(4H)-yl)(2,3-dihydrobenzofuran-7-yl)methanone] was tested, and the activity at 3 µM was 22%.
`O=C(c1ccc(CC(F)(F)F)cc1)N1CCc2nc(N3C4CCC3CNC4)sc2C1` [Example 232, (2-(3,8-diazabicyclo[3.2.1]octan-8-yl)-6,7-dihydrothiazolo[5,4-c]pyridin-5(4H)-yl)(4-(2,2,2-trifluoroethyl)phenyl)methanone] was tested, and the activity at 3 µM was 5%.
